Test results from ChEMBL document CHEMBL1201862, “PubChem BioAssay data set” (2004).
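Values below derive from 48-hour exposures of cells grown in 96-well plates, with endpoints linearly interpolated between the two concentrations bracketing the appropriate inhibition level. The concentration for 50% growth inhibition is given as GI50.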 Activity calls are given as the source filed them. Rule as the data show it: active = GI50 up to about 1.1 µM and inactive = higher.

Assays:
Experiment in all cases: inhibition of tumour cell growth, NCI panel, 48 h
[1] = system: CAKI-1
[2] = system: COLO 205
[3] = system: HCC 2998
[4] = system: HOP-62
[5] = system: HOP-92
[6] = system: IGROV-1
[7] = system: Malme-3M
[8] = system: NCI-H226
[9] = system: NCI-H460
[10] = system: PC-3
[11] = system: RPMI-8226
[12] = system: SF-295
[13] = system: SK-MEL-2
[14] = system: SR
[15] = system: UACC-257
[16] = system: A549
[17] = system: HCT-116
[18] = system: M14
[19] = system: SNB-19
[20] = system: UO-31

Row | SMILES | GI50 [1] | GI50 [2] | GI50 [3] | GI50 [4] | GI50 [5] | GI50 [6] | GI50 [7] | GI50 [8] | GI50 [9] | GI50 [10] | GI50 [11] | GI50 [12] | GI50 [13] | GI50 [14] | GI50 [15] | GI50 [16] | GI50 [17] | GI50 [18] | GI50 [19] | GI50 [20]
1 | O=c1c(-c2ccccc2)c(SCCCN2CCN(c3cccc(Cl)c3)CC2)n(-c2ccccc2)c(=S)n1-c1ccccc1 | 25.6 µM (inactive) | > 100 µM (inactive) | > 100 µM (inactive) | > 100 µM (inactive) | > 100 µM (inactive) | > 100 µM (inactive) | > 100 µM (inactive) | > 100 µM (inactive) | > 100 µM (inactive) | > 100 µM (inactive) | > 100 µM (inactive) | > 100 µM (inactive) | > 100 µM (inactive) | 29 µM (inactive) | > 100 µM (inactive) | – | – | – | – | –
2 | COc1c2c(cc3c1OCO3)C13C=CC(OC)CC1N(CC3)C2.[O-][Cl+3]([O-])([O-])O (configuration not stated) | > 100 µM (inactive) | 35.6 µM (inactive) | 90.8 µM (inactive) | > 100 µM (inactive) | > 100 µM (inactive) | > 100 µM (inactive) | > 100 µM (inactive) | > 100 µM (inactive) | – | > 100 µM (inactive) | > 100 µM (inactive) | > 100 µM (inactive) | > 100 µM (inactive) | 4.9 µM (inactive) | > 100 µM (inactive) | > 100 µM (inactive) | > 100 µM (inactive) | > 100 µM (inactive) | > 100 µM (inactive) | > 100 µM (inactive)
3 | Clc1ccc(-c2nn3c(COc4ccc(OCc5nnc6sc(-c7ccc(Cl)cc7)nn56)c(Cl)c4)nnc3s2)cc1 | 21.6 µM (inactive) | 57.8 µM (inactive) | 20.2 µM (inactive) | 23.2 µM (inactive) | 17.5 µM (inactive) | 18.9 µM (inactive) | 37.3 µM (inactive) | 74.5 µM (inactive) | 52 µM (inactive) | 31 µM (inactive) | 24.5 µM (inactive) | 26.5 µM (inactive) | 53.3 µM (inactive) | 19.1 µM (inactive) | 44.7 µM (inactive) | 24.4 µM (inactive) | 24.8 µM (inactive) | 31.7 µM (inactive) | 14.6 µM (inactive) | 17.3 µM (inactive)
4 | O=S(=O)(O)SCCNCCCCCC1CCCCC1 | 19 µM (inactive) | 16.6 µM (inactive) | 5.41 µM (inactive) | 7.43 µM (inactive) | 20.8 µM (inactive) | 8.65 µM (inactive) | 18.8 µM (inactive) | 11.5 µM (inactive) | 4.72 µM (inactive) | 8.02 µM (inactive) | 17.1 µM (inactive) | 5.86 µM (inactive) | 2.87 µM (inactive) | 8.99 µM (inactive) | 6.61 µM (inactive) | 7.8 µM (inactive) | 5.05 µM (inactive) | 4.95 µM (inactive) | 5.46 µM (inactive) | 13.9 µM (inactive)
5 | O=C(/C=C/c1ccc2c(c1)OCO2)NCCc1ccco1 | 52.5 µM (inactive) | > 100 µM (inactive) | > 100 µM (inactive) | 83.8 µM (inactive) | 92.7 µM (inactive) | 19.5 µM (inactive) | 41.6 µM (inactive) | 90.2 µM (inactive) | 69.8 µM (inactive) | 50.8 µM (inactive) | 21.8 µM (inactive) | 54.8 µM (inactive) | > 100 µM (inactive) | 18.5 µM (inactive) | 49.8 µM (inactive) | 89.5 µM (inactive) | 68.9 µM (inactive) | 45.5 µM (inactive) | > 100 µM (inactive) | 41 µM (inactive)
6 | CC(C)c1cc2c(c(O)c1O)[C@@]1(C)CCCC(C)(C)C1=C(O)C2 | 1.05 µM (active) | 2.84 µM (inactive) | 1.01 µM (active) | 2.78 µM (inactive) | 0.817 µM (active) | 1.04 µM (active) | 1.26 µM (inactive) | > 50 µM (inactive) | 1.51 µM (inactive) | 1.19 µM (inactive) | 0.946 µM (active) | 1.53 µM (inactive) | 0.968 µM (active) | 1.7 µM (inactive) | 1.13 µM (inactive) | 1.66 µM (inactive) | 2.27 µM (inactive) | 2.36 µM (inactive) | 2.42 µM (inactive) | 1.36 µM (inactive)
7 | COc1cc(/C=C/C(=N\NC(N)=S)c2sc(NNC(C)=O)nc2C)ccc1O | > 100 µM (inactive) | > 100 µM (inactive) | > 100 µM (inactive) | > 100 µM (inactive) | > 100 µM (inactive) | > 100 µM (inactive) | > 100 µM (inactive) | > 100 µM (inactive) | > 100 µM (inactive) | > 100 µM (inactive) | > 100 µM (inactive) | > 100 µM (inactive) | > 100 µM (inactive) | > 100 µM (inactive) | > 100 µM (inactive) | > 100 µM (inactive) | > 100 µM (inactive) | > 100 µM (inactive) | > 100 µM (inactive) | > 100 µM (inactive)
8 | CNC(=O)/C(=C/c1ccc(OC)cc1)c1cc(OC)c(OC)c(OC)c1 | 2.47 µM (inactive) | 1.16 µM (inactive) | 2.45 µM (inactive) | 2.27 µM (inactive) | 13.9 µM (inactive) | 4.76 µM (inactive) | 0.887 µM (active) | 10.3 µM (inactive) | 1.47 µM (inactive) | 1.03 µM (active) | 2.99 µM (inactive) | 0.552 µM (active) | 3.89 µM (inactive) | 0.513 µM (active) | 5.08 µM (inactive) | 1.69 µM (inactive) | 1.55 µM (inactive) | 1.45 µM (inactive) | 4.58 µM (inactive) | 6.44 µM (inactive)
9 | CC1=C(C(=O)OCCO[N+](=O)[O-])C(c2ccccc2C(F)(F)F)C(C(=O)OC(C)C)=C(C)N1 (configuration not stated) | 11.4 µM (inactive) | 14 µM (inactive) | 22.4 µM (inactive) | 20.6 µM (inactive) | 3.03 µM (inactive) | 13.1 µM (inactive) | 18.3 µM (inactive) | 9.73 µM (inactive) | 10.7 µM (inactive) | 3.36 µM (inactive) | 5.12 µM (inactive) | 11.8 µM (inactive) | 12.8 µM (inactive) | 41.7 µM (inactive) | 11.2 µM (inactive) | 13.2 µM (inactive) | 9.84 µM (inactive) | 13.1 µM (inactive) | 18.2 µM (inactive) | 11.3 µM (inactive)
10 | Fc1ccc(C(OCCN2CC3CC2CN3)c2ccc(F)cc2)cc1 (configuration not stated) | > 100 µM (inactive) | 18.2 µM (inactive) | 16.4 µM (inactive) | > 100 µM (inactive) | 69.2 µM (inactive) | 53.3 µM (inactive) | 16.7 µM (inactive) | 59 µM (inactive) | 38.9 µM (inactive) | 59.2 µM (inactive) | 26.1 µM (inactive) | 83.2 µM (inactive) | 19.1 µM (inactive) | 27.5 µM (inactive) | 18.3 µM (inactive) | – | – | – | – | –
11 | O=C(/N=N/c1ccc(Br)cc1)NNc1ccc(Br)cc1 | 23.7 µM (inactive) | 23 µM (inactive) | 21.5 µM (inactive) | 16.4 µM (inactive) | 16.1 µM (inactive) | 22.1 µM (inactive) | 26 µM (inactive) | 20.5 µM (inactive) | 21.9 µM (inactive) | 15.5 µM (inactive) | 23.8 µM (inactive) | 28.1 µM (inactive) | 19.1 µM (inactive) | 28.6 µM (inactive) | – | – | 17.5 µM (inactive) | 17.1 µM (inactive) | 39.8 µM (inactive) | 22.9 µM (inactive)
